Reference: US11040031B2, “Pyrazole derivatives as MALT1 inhibitors” (Janssen Pharmaceutica NV, priority 2018, dated 2021)
Where two headings read alike, the source gives them in different places.

What was measured:
[1] = tested on: OCI-Ly3 ABC-DLBCL cell line; assay: 4-day proliferation assay OCI-Ly3; assay type: cell-based; details: Homo sapiens, read-out: Anti-proliferation: OCI-LY-3 IC50
Protocol: To assess anti-proliferative effects, MALT1 inhibitor test compounds were tested in 4-day proliferation assays using three different DLBCL cell lines.
Cells should be kept between 0.5-2.5 million cells per mL during culturing and cells should be supplemented every 2-3 days with fresh 50 μM beta-mercaptoenthanol. No beta-mercaptoethanol is used during the proliferation assay. OCI-Ly7 cells were propagated in IMDM (ThermoFisher) supplemented with 10% fetal bovine serum (HyClone), 2 mM L-glutamine (Sigma Aldrich) and 50 μg/mL Gentamycin. Cell passage numbers should not exceed 30.
10,000 TMD8, 10,000 OCI-Ly3 or 2,000 OCI-Ly7 cells were seeded in 100 μL media per well and incubated for 4 days at 37° C. and 5% CO2. Cell plating numbers were chosen based on growth curves to ensure linear cell growth. After 4 days of incubation 50 μl CellTiterGLO reagent (Promega) were added to each well and luminescence was measured on the Envision after 10 min of incubation at room temperature.

[2] = target: T1, full-length MALT1 protein (Strep-MALT1(1-824)-His) (Homo sapiens, UniProt Q9UDY8); assay: biochemical;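 also: fluorogenic LRSR-AMC substrate cleavage by MALT1, 50 min compound preincubation then 4 h reaction at RT, 11-point dilution from 30 µM, scaled between enzyme-free and untreated enzyme controls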
T1 sequence (Q9UDY8 1-824): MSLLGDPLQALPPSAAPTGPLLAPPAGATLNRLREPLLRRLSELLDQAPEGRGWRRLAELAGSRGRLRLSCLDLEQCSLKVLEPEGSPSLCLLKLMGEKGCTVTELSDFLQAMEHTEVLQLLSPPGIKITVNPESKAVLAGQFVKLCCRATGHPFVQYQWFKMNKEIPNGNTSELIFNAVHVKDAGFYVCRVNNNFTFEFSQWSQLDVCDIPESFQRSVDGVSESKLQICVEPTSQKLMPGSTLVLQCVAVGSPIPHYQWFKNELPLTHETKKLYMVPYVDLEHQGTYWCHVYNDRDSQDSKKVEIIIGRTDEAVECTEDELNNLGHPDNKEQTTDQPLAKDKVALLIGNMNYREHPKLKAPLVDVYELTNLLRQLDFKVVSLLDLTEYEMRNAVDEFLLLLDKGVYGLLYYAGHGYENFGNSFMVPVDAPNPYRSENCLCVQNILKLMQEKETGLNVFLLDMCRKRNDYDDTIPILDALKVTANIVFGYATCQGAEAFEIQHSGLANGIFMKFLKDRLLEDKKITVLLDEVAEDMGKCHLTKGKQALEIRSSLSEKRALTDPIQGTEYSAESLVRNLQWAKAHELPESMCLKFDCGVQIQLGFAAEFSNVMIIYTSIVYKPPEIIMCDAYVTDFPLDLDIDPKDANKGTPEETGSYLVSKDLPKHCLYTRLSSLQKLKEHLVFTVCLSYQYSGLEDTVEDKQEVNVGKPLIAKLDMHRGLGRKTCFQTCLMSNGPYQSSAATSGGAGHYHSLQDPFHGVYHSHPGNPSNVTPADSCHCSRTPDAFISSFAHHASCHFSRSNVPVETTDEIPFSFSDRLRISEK

[3] = tested on: Secretion of IL10 by TMD8 ABC-DLBCL cells; assay: Human IL10 Mesoscale assay (TMD-8); assay type: cell-based; details: read-out: Human IL10 Mesoscale assay (TMD-8)
Protocol: (§1) NFKB signaling regulates the secretion of multiple cytokines, including IL6 and IL10. Secretion of the cytokines IL6 and IL10 by TMD8 or OCI-LY3 ABC-DLBCL cells was measured using a mesoscale assay.
(§2) Cell passage number should not exceed 30. Cells should be kept between 0.5-2.5 million cells per mL during culturing and cells should be supplemented every 2-3 days with fresh 50 µM beta-mercaptoenthanol. No beta-mercaptoethanol was used during the mesoscale assay.
(§3) DMSO control wells were used to determine the maximum signal (High Control (HC)). […] Compounds and cells were incubated for 24 h at 37° C. and 5% CO2 (assay volume is 150 μL). After 24 h of incubation 50 μL of the supernatant was transferred to a MSD plate (V-Plex Proinflammation Panel 1 (human) kit, Mesoscale (MSD)) and incubated for 2 h with vigorous shaking (600 rpm) at room temperature. Following incubation, plates were washed 3× with PBS+0.05% Tween-20 and 25 μL detection antibody solution (IL6 & IL10 antibodies in diluent 3 (MSD)) was added per well followed by 2 h of incubation with vigorous shaking (600 rpm) at room temperature. After 3× washes with PBS+0.05% Tween-20, plates were incubated with 150 μL 2× Read Buffer T and read on SECTOR imager.

[4] = tested on: Secretion of IL6 by TMD8 ABC-DLBCL cells; assay: Human IL6 Mesoscale assay (TMD-8); assay type: cell-based; details: read-out: Human IL6 Mesoscale assay (TMD-8)
Protocol: as §1, §2, §3

[5] = tested on: Secretion of IL10 by OCI-LY3 ABC-DLBCL cells; assay: Human IL10 Mesoscale assay (OCI-LY3); assay type: cell-based; details: read-out: Human IL10 Mesoscale assay (OCI-LY3)
Method in brief: (§4)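 TMD8 or OCI-LY3 ABC-DLBCL cells incubated with compound 24 h at 37° C without beta-mercaptoethanol. Secreted IL6 and IL10 in supernatant quantified by MSD electrochemiluminescence immunoassay; DMSO wells define maximum signal.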

[6] = tested on: Secretion of IL6 by OCI-LY3 ABC-DLBCL cells; assay: Human IL6 Mesoscale assay (OCI-LY3); assay type: cell-based; details: read-out: Human IL6 Mesoscale assay (OCI-LY3)
Method in brief: as §4

[7] = TMD8 cells, 24 h incubation, supernatant, MSD V-Plex
[8] = OCI-LY3 cells, 24 h incubation, supernatant, MSD V-Plex
[9] = 96 h, 10,000 OCI-Ly3 cells per well, 4 days, CellTiterGLO

SMILES | IC50 ([1]; OCI-Ly3, 96 h) [nM] | IC50 [2] [nM] | IC50 [3, 7] [nM] | IC50 [4, 7] [nM] | IC50 [1, 9] [nM] | also measured
O=C(Nc1cnc(-n2nccn2)c(Cl)c1)c1cnn(-c2cccc(F)c2)c1C(F)(F)F [Cpd 20, N-(5-chloro-6-(2H-1,2,3-triazol-2-yl)pyridin-3-yl)-1-(3-fluorophenyl)-5-(trifluoromethyl)-1H-pyrazole-4-carboxamide] | 12600 | 562 |  |  |  | IC50 ([3]; TMD8, 24 h): 1000 nM
Cc1cc(-n2ncc(C(=O)Nc3cnc(-n4nccn4)c(C#N)c3)c2C(F)(F)F)c(Cl)cn1 [Cpd 70, 1-(5-chloro-2-methylpyridin-4-yl)-N-(5-cyano-6-(2H-1,2,3-triazol-2-yl)pyridin-3-yl)-5-(trifluoromethyl)-1H-pyrazole-4-carboxamide] | 6610 | 204 |  |  |  | IC50 ([3]; TMD8, 24 h): 3550 nM; IC50 ([4]; TMD8, 24 h): 4470 nM
N#Cc1cc(NC(=O)c2cnn(-c3nccc(N)c3Cl)c2C(F)(F)F)cnc1-n1nccn1 [Cpd 120, 1-(4-amino-3-chloropyridin-2-yl)-N-(5-cyano-6-(2H-1,2,3-triazol-2-yl)pyridin-3-yl)-5-(trifluoromethyl)-1H-pyrazole-4-carboxamide] |  | 126 | 1350 | 1100 |  | IC50 [5, 8]: 794 nM; IC50 [6, 8]: 741 nM
CN1CCc2c1cccc2-n1ncc(C(=O)Nc2cnc(-n3nccn3)c(C#N)c2)c1C(F)(F)F [Cpd 128, N-(5-cyano-6-(2H-1,2,3-triazol-2-yl)pyridin-3-yl)-1-(1-methylindolin-4-yl)-5-(trifluoromethyl)-1H-pyrazole-4-carboxamide] |  | 229 | 2240 | 1020 |  | 
Cc1ccccc1-n1ncc(C(=O)Nc2cnc(-n3nccn3)c(Cl)c2)c1C(F)(F)F [Cpd 29, N-(5-chloro-6-(2H-1,2,3-triazol-2-yl)pyridin-3-yl)-1-(o-tolyl)-5-(trifluoromethyl)-1H-pyrazole-4-carboxamide] |  | 151 | 132 | 135 | 1230 | 
Cc1ccnc(-n2ncc(C(=O)Nc3cnc(-n4nccn4)c(Cl)c3)c2C(F)(F)F)c1 [Cpd 22, N-(5-chloro-6-(2H-1,2,3-triazol-2-yl)pyridin-3-yl)-1-(4-methylpyridin-2-yl)-5-(trifluoromethyl)-1H-pyrazole-4-carboxamide] | 490 | 724 |  |  |  | IC50 ([3]; TMD8, 24 h): 724 nM; IC50 ([4]; TMD8, 24 h): 437 nM
Cc1cc(Cl)ccc1-n1ncc(C(=O)Nc2cnc(-n3nccn3)c(Cl)c2)c1C(F)(F)F [Cpd 2, 1-(4-Chloro-2-methylphenyl)-N-(5-chloro-6-(2H-1,2,3-triazol-2-yl)pyridin-3-yl)-5-(trifluoromethyl)-1H-pyrazole-4-carboxamide] |  | 132 | 65 | 148 | 741 | 
N#Cc1cc(NC(=O)c2cnn(-c3cccc4c3CCN4)c2C(F)(F)F)cnc1-n1nccn1 [Cpd 130, N-(5-cyano-6-(2H-1,2,3-triazol-2-yl)pyridin-3-yl)-1-(indolin-4-yl)-5-(trifluoromethyl)-1H-pyrazole-4-carboxamide] |  | 234 | 245 | 437 |  | 
N#Cc1ccc(-n2ncc(C(=O)Nc3cnc(-n4nccn4)c(Cl)c3)c2C(F)(F)F)cc1 [Cpd 19, N-(5-chloro-6-(2H-1,2,3-triazol-2-yl)pyridin-3-yl)-1-(4-cyanophenyl)-5-(trifluoromethyl)-1H-pyrazole-4-carboxamide] |  | 132 | 117 |  | 7940 | 
O=C(Nc1cnc(-n2nccn2)c(Cl)c1)c1cnn(-c2ccncc2)c1C(F)(F)F [Cpd 4, N-(5-Chloro-6-(2H-1,2,3-triazol-2-yl)pyridin-3-yl)-1-(pyridin-4-yl)-5-(trifluoromethyl)-1H-pyrazole-4-carboxamide] |  | 282 | 933 |  | 1050 | 
N#Cc1cc(NC(=O)c2cnn(-c3ccccc3C3CC3)c2C(F)(F)F)cnc1-n1nccn1 [Cpd 100, N-(5-cyano-6-(2H-1,2,3-triazol-2-yl)pyridin-3-yl)-1-(2-cyclopropylphenyl)-5-(trifluoromethyl)-1H-pyrazole-4-carboxamide] |  | 170 |  |  | 269 | IC50 [5, 8]: 93 nM; IC50 [6, 8]: 129 nM
O=C(Nc1cnc(-n2nccn2)c(Cl)c1)c1cnn(-c2cccc3c2OC(F)(F)O3)c1C(F)(F)F [Cpd 58, N-(5-chloro-6-(2H-1,2,3-triazol-2-yl)pyridin-3-yl)-1-(2,2-difluorobenzo[d][1,3]dioxol-4-yl)-5-(trifluoromethyl)-1H-pyrazole-4-carboxamide] |  | 145 |  |  | 7240 | IC50 [5, 8]: 195 nM; IC50 [6, 8]: 407 nM
O=C(Nc1cnc(-n2nccn2)c(Cl)c1)c1cnn(-c2ccc(F)cc2)c1C(F)(F)F [Cpd 18, N-(5-chloro-6-(2H-1,2,3-triazol-2-yl)pyridin-3-yl)-1-(4-fluorophenyl)-5-(trifluoromethyl)-1H-pyrazole-4-carboxamide] | 6460 | 151 |  |  |  | IC50 ([3]; TMD8, 24 h): 115 nM
COc1cc(F)ccc1-n1ncc(C(=O)Nc2cnc(-n3nccn3)c(Cl)c2)c1C(F)(F)F [Cpd 81, N-(5-chloro-6-(2H-1,2,3-triazol-2-yl)pyridin-3-yl)-1-(4-fluoro-2-methoxyphenyl)-5-(trifluoromethyl)-1H-pyrazole-4-carboxamide] |  | 162 |  |  | 1260 | IC50 [5, 8]: 138 nM; IC50 [6, 8]: 138 nM
Cc1cccnc1-n1ncc(C(=O)Nc2cnc(-n3nccn3)c(Cl)c2)c1C(F)(F)F [Cpd 3, N-(5-Chloro-6-(2H-1,2,3-triazol-2-yl)pyridin-3-yl)-1-(3-methylpyridin-2-yl)-5-(trifluoromethyl)-1H-pyrazole-4-carboxamide] |  | 282 | 832 |  | 2460 | 
N#Cc1cc(NC(=O)c2cnn(-c3c(F)cc(F)cc3Cl)c2C(F)(F)F)cnc1-n1nccn1 [Cpd 99, 1-(2-chloro-4,6-difluorophenyl)-N-(5-cyano-6-(2H-1,2,3-triazol-2-yl)pyridin-3-yl)-5-(trifluoromethyl)-1H-pyrazole-4-carboxamide] | 324 | 170 |  |  |  | IC50 ([5]; OCI-Ly3, 24 h): 174 nM; IC50 ([6]; OCI-Ly3, 24 h): 148 nM
